What was measured:
[1] = tested on: PrP^Sc level in RML prion-infected mouse neuroblastoma cells (ScN2a-cl3); type: cell-based
[2] = Microsomal stability, mouse microsomes
[3] = Microsomal stability, human microsomes

CC(=O)c1ccc(N2CCN(Cc3cccnc3)CC2)cc1 [Compound 7]
Antiprion potency EC50 ± SEM [1]: micromolar range

Fc1ccc(CN2CCN(c3ccc(-c4nc5ccccc5o4)cc3)CC2)cn1 [Compound 46]
Fold less potent (EC50) than parent pyridine analog 41 [1]: 1.5 fold

CC(=O)c1ccc(N2CCN(Cc3ccc(C)o3)CC2)cc1 [Compound 19]
Antiprion potency EC50 ± SEM [1]: micromolar range

CC(=O)c1ccc(N2CCN(Cc3cccs3)CC2)cc1 [Compound 13]
Antiprion potency EC50 ± SEM [1]: micromolar range

COc1ccc(CN2CCN(c3ccc(-c4nc5ccccc5o4)cc3)CC2)cn1 [Compound 47]
Fold less potent (EC50) than parent pyridine analog 41 [1]: 4.5 fold | Fold improvement of t1/2 in mouse microsomes compared to 41 [2]: approximately 3 fold | Fold increase in stability in human microsomes compared to 41 [3]: approximately 3 fold

c1cncc(CN2CCN(c3ccc(-c4nc5ccccc5s4)cc3)CC2)c1 [Compound 44]
Fold improvement of t1/2 in mouse microsomes compared to 41 [2]: approximately 2 fold

CC(=O)c1ccc(N2CCN(Cc3ccccc3)CC2)cc1 [Compound 1]
Antiprion potency EC50 ± SEM [1]: micromolar range

c1cncc(CN2CCN(c3ccc(-c4nc5ccccc5o4)cc3)CC2)c1 [Compound 41]
Fold more potent (EC50) than furanyl 42 and thiophenyl 43 [1]: ≥ 13 fold
